In PubChem BioAssay AID602375 (Sanford-Burnham Center for Chemical Genomics, 2012) one finds IC50 data, which are given here for 86 compounds.

Active and inactive are the calls of the source. How the calls were made is not given here.

The subject of the assay is S. cerevisiae tim23-1 mutant growth, luminescence. The assay is described as follows: analog potency on tim23-1 yeast growth – luminescence, S. cerevisiae, SAR follow-up (AID 602375).
For `Cn1c(SCc2cccc(/C(N)=N/OC(=O)c3ccc(Cl)cc3)c2)nnc1C(F)(F)F`, the IC50 is 2.37 µM.

Consider `CCN(CC)S(=O)(=O)c1ccc(C(=O)OCn2nnc3ccccc3c2=O)cc1`, for which the IC50 was 13 µM.

Take `O=C(Nc1ccn[nH]1)c1cccc(OCc2cccnc2)c1`: the IC50 was > 99 µM (inactive).

For the compound `COc1ccc([N+](=O)[O-])cc1NS(=O)(=O)c1c(C)nc2scc(C)n2c1=O`, the IC50 is > 99 µM (inactive).

As for `O=C(Nc1ccc(-c2cn3ccccc3n2)cc1)c1cccs1`, the IC50 is 0.897 µM.

In the case of `Cc1cccn2c(=O)cc(CSc3cc(C(=O)NC4CC4)c4ccccc4n3)nc12`, the IC50 is > 99 µM (inactive).

For `N/C(=N\OC(=O)c1ccc(Cl)cc1)c1ccc(-c2csnn2)cc1`, the IC50 was > 99 µM (inactive).

With `Cc1nc2scc(C)n2c(=O)c1S(=O)(=O)Nc1ccccc1`, the IC50 is > 99 µM (inactive).

`N/C(Cc1ccc(Cl)cc1)=N\OC(=O)COc1ccccc1Cl`: the concentration for half-maximal inhibition (IC50) is 4.54 µM.

For `COc1ccc(Cl)cc1NS(=O)(=O)c1c(C)nc2scc(C)n2c1=O`, the IC50 is > 99 µM (inactive).

As for `O=C(O)c1cccnc1SCc1cc(=O)n2cc(Br)ccc2n1`, the IC50 was > 99 µM (inactive).

As to `O=C(N/N=C/C(Cl)=C\c1ccccc1)c1cccs1`, the IC50 is 2.3 µM.

Turning to `N/C(=N\OC(=O)c1ccc2ccccc2c1)c1ccc(I)cc1`, the IC50 is > 99 µM (inactive).

Consider `CN(C(=O)c1cccc(S(C)(=O)=O)c1)c1c(N)n(Cc2ccccc2)c(=O)[nH]c1=O`, for which the IC50 is > 99 µM (inactive).

Regarding `Cc1nc2scc(C)n2c(=O)c1S(=O)(=O)Nc1ccc(OC(F)(F)F)cc1`, the IC50 was 16.5 µM.

In the case of `CC(=O)c1ccc(NS(=O)(=O)c2c(C)nc3scc(C)n3c2=O)cc1`, the IC50 is 15.9 µM.

As to `O=c1cc(CSc2ccccn2)nc2ccccn12`, the IC50 is > 99 µM (inactive).

For the compound `CN1CCc2nc3sc(C(=O)C45CC6CC(CC(C6)C4)C5)c(N)c3cc2C1`, the IC50 is 18.1 µM.

Regarding `CC(=O)c1ccc2[nH]c3c(c2c1)CCCC3=O`, the IC50 was > 99 µM (inactive).

Turning to `N#Cc1c(-c2ccc([N+](=O)[O-])cc2)cc(-c2ccccc2)nc1N`, the IC50 was > 99 µM (inactive).

With `Cc1nc2scc(C)n2c(=O)c1S(=O)(=O)Nc1ccc(N2CCOCC2)cc1`, the IC50 was 16.3 µM.

As to `O=C(Nc1ccn[nH]1)c1ccc(Br)cc1Cl`, the IC50 was > 99 µM (inactive).

Regarding `C(/C=C/c1ccccc1)=NNc1nc2ccccc2[nH]1`, the half-inhibitory concentration (IC50) is 11.2 µM.

Take `Cc1cc(OCC(=O)O/N=C(\N)Cc2ccc(Cl)cc2)ccc1Br`: the IC50 was 3.69 µM.

As to `N/C(=N\OC(=O)c1ccc(Cl)cc1)c1ccc(Cl)cc1`, the 50% inhibitory concentration (IC50) was 3.02 µM.

As to `O=C(O/N=C(/c1ccc(Br)cc1)N1CCOCC1)c1ccccc1`, the IC50 is 0.787 µM.

Turning to `COc1ccc(C2N=C(c3ccccc3C)NO2)cc1O` (stereo unspecified), the IC50 is > 99 µM (inactive).

Turning to `O=c1cc(CSc2ccc(C(F)(F)F)cn2)nc2ccc(Br)cn12`, the IC50 is > 99 µM (inactive).

For `N/C(=N\OC(=O)c1ccc2ncsc2c1)c1ccccc1`, the IC50 was 14.8 µM.

For `CC(C)Cn1cnc2c(c(-c3ccccc3)c(-c3ccccc3)n2Cc2ccco2)c1=N`, the IC50 is 21.6 µM.

In the case of `N#C/C(=C\c1ccc(Cl)cc1)C(=O)Nc1cccnc1`, the IC50 is 16 µM.

In the case of `CCOc1cc2ccccc2cc1C(=O)O/N=C(\N)c1ccc(Cl)cc1`, the IC50 was 1.57 µM.

As for `O=C(Nc1nc2c(s1)Cc1ccccc1-2)c1ccc(Br)s1`, the IC50 was > 99 µM (inactive).

For the compound `O=c1cc(CSc2ccc(S(=O)(=O)N3CCCCC3)cn2)nc2ccc(Br)cn12`, the IC50 was 70.2 µM.

As for `Cc1ccc(-c2nc3ccc(NC(=O)c4cccs4)cc3[nH]2)o1`, the IC50 is 1.42 µM.

With `COc1ccc(/C=C/C(=O)Nc2ccc3c(c2)CCC3)cc1OC`, the IC50 was 1.72 µM.

As to `O=C(Nc1ccc2nc(-c3ccco3)[nH]c2c1)c1cccs1`, the IC50 is 0.459 µM.

Turning to `Cc1cc2cc(CNC(=O)c3ccc(F)c(F)c3)ccc2[nH]1`, the IC50 was > 99 µM (inactive).

Turning to `CC(C)(C)c1csc(NC(=O)c2ccc(Cl)s2)n1`, the IC50 was 17.3 µM.

On to `Cc1ccc(-c2nn(-c3ccccc3)cc2NC(=O)CCl)cc1`, for which the half-maximal inhibitory concentration (IC50) was 1.75 µM.

Turning to `Cc1ccc2nc(N3CCN(S(C)(=O)=O)CC3)[nH]c2c1`, the IC50 was > 99 µM (inactive).

As to `O=S(=O)(Nc1ccc(-c2cn3c(n2)SCC3)cc1)c1cccnc1`, the IC50 is > 99 µM (inactive).

For `Cc1ccc2nc(NC(=O)C3CCCN3S(C)(=O)=O)sc2c1` (stereo unspecified), the IC50 was 91.9 µM.

For `Cc1ccc(-c2cc(NC(=O)c3c(C)noc3C)nc(-c3ccccc3)c2)cc1`, the IC50 is > 99 µM (inactive).

As for `CCOc1ccc2nc(N3C(=O)CNC3=S)sc2c1`, the IC50 is > 99 µM (inactive).

Take `Cc1nc2scc(C)n2c(=O)c1S(=O)(=O)Nc1ccc(Cl)c(C(F)(F)F)c1`: the IC50 was > 99 µM (inactive).

As for `Cc1ccc(S(=O)(=O)Cc2cc(=O)n3ccccc3n2)nc1`, the IC50 was > 99 µM (inactive).

In the case of `N/C(=N\OC(=O)c1ccc(Cl)cc1)c1ccc2nonc2c1`, the IC50 is > 99 µM (inactive).

For `Cc1nc2scc(C)n2c(=O)c1S(=O)(=O)Nc1ccc(N2CCN(C(=O)C(C)C)CC2)cc1`, the IC50 was > 99 µM (inactive).

On to `O=C(Nc1nc2ccccc2s1)C1CCCN1S(=O)(=O)c1ccc(Cl)cc1` (stereo unspecified), for which the IC50 is 12 µM.

As for `Cc1ccc(/C(N)=N/OC(=O)c2ccccc2)cc1F`, the IC50 is 1.52 µM.

For the compound `Cc1nc2scc(C)n2c(=O)c1S(=O)(=O)Nc1ccc(F)cc1Cl`, the IC50 is 52.7 µM.

Take `Cc1nc2scc(C)n2c(=O)c1S(=O)(=O)Nc1ccc(Oc2ccc(Cl)cc2)cc1`: the IC50 was > 99 µM (inactive).

For the compound `Cc1nc2scc(C)n2c(=O)c1S(=O)(=O)Nc1ccc(N2CCOCC2)c(Cl)c1`, the IC50 is > 99 µM (inactive).

As for `O=C1OC(c2ccccc2)=N/C1=C\C=C\c1ccco1`, the IC50 was 2.44 µM.

For `N#Cc1ccc(C2N=C(c3ccccc3)NO2)cc1` (stereo unspecified), the IC50 is > 99 µM (inactive).

`Cc1nc(SCc2cc(=O)n3cc(Br)ccc3n2)c(C#N)c(C)c1C`: the IC50 was > 99 µM (inactive).

As for `Cc1nc2scc(C)n2c(=O)c1S(=O)(=O)Nc1cc(C(F)(F)F)ccc1Cl`, the IC50 is > 99 µM (inactive).

Regarding `CC(=O)Nc1ccc(C(C(F)(F)F)(C(F)(F)F)C(F)(F)F)cc1`, the IC50 is > 99 µM (inactive).

As to `CN1CCN(c2nc(-c3cccnc3)nc3ccccc23)CC1`, the IC50 was > 99 µM (inactive).

`Cc1ccc2nc(CSc3nc(C)c(C)c(C)c3C(N)=O)cc(=O)n2c1`: the IC50 is 29.6 µM.

On to `N/C(=N\OC(=O)c1ccc(Cl)cc1)c1ccc(Oc2ccc(C(F)(F)F)cn2)cc1`, for which the IC50 is 0.57 µM.

With `Cc1ccc2nc(CS(=O)(=O)c3ncccc3Cl)cc(=O)n2c1`, the IC50 is > 99 µM (inactive).

Consider `N/C(=N\OC(=O)c1ccc2ncsc2c1)c1ccc(Cl)cc1Cl`, for which the IC50 is 1.48 µM.

For `O=c1cc(C(F)F)oc2c1ccc1ccccc12`, the IC50 is > 99 µM (inactive).

For the compound `CCCN(C(=O)c1ccc([N+](=O)[O-])c(C)c1)c1c(N)n(Cc2ccccc2)c(=O)[nH]c1=O`, the IC50 is 0.987 µM.

As for `COc1ccc(/C(N)=N/OC(=O)c2ccc(C(F)(F)F)cc2)c(OC)c1`, the IC50 is > 99 µM (inactive).

`O=C(CSc1cccc[n+]1[O-])Nc1ccccc1Oc1ccccc1`: the IC50 was 1.06 µM.

In the case of `CC1(C)C=Cc2cc(/C(N)=N/OC(=O)c3ccccc3)ccc2O1`, the concentration for half-maximal inhibition (IC50) is 0.617 µM.

Take `N/C(Cc1cccc2ccccc12)=N\OC(=O)COc1ccc(Cl)cc1Cl`: the IC50 was 19.1 µM.

Consider `O=C(NN=C/C=C\c1ccco1)c1cccs1`, for which the IC50 is 6.87 µM.

For the compound `Cc1nn(Cc2cccc(C(=O)O/N=C(\N)c3ccc(Cl)cc3)c2)c(C)c1Br`, the IC50 was 2.65 µM.

`O=C(CSCc1ccccc1)Nc1cc(S(=O)(=O)N2CCOCC2)ccc1Oc1ccccc1`: the IC50 was > 99 µM (inactive).

For the compound `CCN1CCc2nc3sc(C(=O)Nc4cc(Cl)ccc4OC)c(N)c3cc2C1`, the IC50 was > 99 µM (inactive).

For the compound `CCOc1ccc(C(=O)O/N=C(\N)c2ccc(OC)cc2)cc1OCC`, the 50% inhibitory concentration (IC50) was 1.48 µM.

For the compound `COc1ccc2c(C)cc(SCc3cc(=O)n4cc(C)ccc4n3)nc2c1`, the IC50 is > 99 µM (inactive).

`Cc1nc2scc(C)n2c(=O)c1S(=O)(=O)Nc1cccc(O)c1`: the IC50 was > 99 µM (inactive).

With `O=C(Nc1ccc2nc(-c3ccc(Br)o3)[nH]c2c1)c1cccs1`, the IC50 is 0.882 µM.

For the compound `Cc1c2c(n(Cc3ccco3)c1C)N=CN1CCS(=O)(=O)N=C21`, the IC50 was > 99 µM (inactive).

For the compound `Cc1nc2scc(C)n2c(=O)c1S(=O)(=O)Nc1ccc(N2CCN(S(C)(=O)=O)CC2)cc1`, the IC50 was > 99 µM (inactive).

For `CCN(C(=O)c1cccc2ncccc12)c1c(N)n(Cc2ccccc2)c(=O)[nH]c1=O`, the IC50 was > 99 µM (inactive).

With `CCn1c(N2CCN(S(=O)(=O)c3ccc(OC)cc3)CC2)nc2ccccc21`, the IC50 is 3.69 µM.

As for `Cc1ccc2nc(CSc3ccc(S(=O)(=O)N4CCCC4)cn3)cc(=O)n2c1`, the IC50 is > 99 µM (inactive).

For `N=c1c2c(-c3ccccc3)c(-c3ccccc3)n(Cc3ccco3)c2ncn1CCCN1CCOCC1`, the IC50 was > 99 µM (inactive).

Take `Cc1csc(NC(=O)c2sc3nc4c(cc3c2N)CN(C)CC4)n1`: the IC50 was > 99 µM (inactive).

For the compound `N#Cc1c(-c2ccccc2)cc(-c2ccc(O)cc2)nc1N`, the IC50 was 2.9 µM.

The IC50 is the concentration that inhibits the measured activity by half.
